Data set [1] can be described thus: Lactate dehydrogenase (LDH) release assay. In kind it is cell-based. A digest of the protocol: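 HCT116 cells stably carrying a p53-responsive β-lactamase reporter were seeded at 8000 cells per well with a final DMSO level of 0.5%. Membrane integrity was assessed by lactate dehydrogenase release using a homogeneous fluorometric kit. Values are geometric means of at least three biological replicates.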

For data set [2], the system named is CellSensor p53RE-bla HCT-116 Cell Line. The note with it: 72 h. A digest of the protocol:
(§1)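 Compound dilution series (10 points, 3-fold, 10 mM top stock in DMSO) tested on overnight-plated Ca Ski cells in RPMI1640/10% FBS and on blasticidin-selected p53RE-bla HCT-116 cells in McCoy's 5A; read-out was CellTiter-Glo 2.0 luminescence after room-temperature equilibration.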

In a further data set the test system is Ca Ski cell line. The note with it: 72 h. In outline: as §1
A short description of data set [3]: Solubility assay (kinetic solubility, PBS pH 7). In kind it is physicochemical. The note with it: for solubility kinetic: pH 7, aqueous buffer, kinetic from dmso stock, read-out: Solubility. A digest of the protocol:
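Values derive from peak-area ratios of sample versus a 100 µM standard, scaled by that standard's concentration.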

The next data set is described as follows: in vitro. The note with it: Nanoclick permeability assay EC50. A digest of the protocol: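 Azido-peptide permeability was read as loss of NanoBRET signal (donor 450 nm, acceptor 610 nm) after adding NanoBret618-azide at 10 μM final.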
The nature of data set [4]: physchem.
A short description of data set [5]: Experimental LogD (partition coefficient). The note with it: for logD: not stated, Partition Coeff LogD.
A short description of data set [6]: physchem. This is another data set of the same source.

≈ marks a conversion by molar mass, not a printed value. Read-outs that look alike come from different tables or passages of the source. Positions of bridges follow the written chain, without caps; N, C: chain ends. Non-standard residues stand in square brackets, D forms with d. Residues, ends and D or L forms follow the SMILES beside them. Lys(N3) = [N-]=[N+]=NCCCC[C@H](N)C(=O)O; R8 = C=CCCCCCC[C@@](C)(N)C(=O)O; Cba = N[C@@H](CC1CCC1)C(=O)O; S5 = C=CCCC[C@](C)(N)C(=O)O; βAla = NCCC(=O)O Bounds are passed on as bounds.

By EC50 is commonly meant the midpoint of the concentration-response curve. One may read the logD as lipophilicity at a set pH, counting ionised and neutral species. A high value points to a more lipophilic compound. On to `CC(=O)N[C@@H](CCCCN=[N+]=[N-])C(=O)NCCC(=O)N[C@H](C(=O)N[C@H](C(=O)N[C@@H](Cc1ccccc1)C(=O)N[C@]1(C)CCCCCCC=CCCC[C@@](C)(C(=O)N[C@@H](CO)C(=O)N[C@@H](C)C(=O)N[C@@H](C)C(N)=O)NC(=O)[C@H](CC2CCC2)NC(=O)[C@H](CCC(N)=O)NC(=O)[C@H](C(C)C)NC(=O)[C@H](Cc2c[nH]c3ccccc23)NC(=O)[C@H](Cc2ccc(O)cc2)NC(=O)[C@H](C(C)C)NC1=O)[C@@H](C)O)C(C)C` [MP-490] (Ac-[Lys(N3)][βAla]VTF[R8]VYWVQ[Cba][S5]SAA-NH2; staple 6-13), for which the concentration for a half-maximal effect (EC50) in data set [1] (LDH: Cytotoxicity assay: EC50) is > 50.6 µM; in data set [2] it was 0.819 µM; in the data set on Ca Ski cell line, > 49.8 µM. The solubility kinetic in data set [3] (pH 7, PBS) turned out to be 3 µM (≈ 5.86 µg/mL). Further, the cell entry EC50 in the data set “in vitro” came to 1.37 µM. In “physchem [4]”, the EPSA worked out at 194 A^2. In data set [5], this compound gave a logD of 4.
Turning to `CC(=O)N[C@@H](CCCCN=[N+]=[N-])C(=O)NCCC(=O)N[C@@H](Cc1ccccc1)C(=O)N[C@H](C(=O)N[C@@H](Cc1ccccc1)C(=O)N[C@]1(C)CCCCCCC=CCCC[C@@](C)(C(=O)N[C@@H](CO)C(=O)N[C@@H](C)C(=O)N[C@@H](C)C(N)=O)NC(=O)[C@H](CC2CCC2)NC(=O)[C@H](CCC(N)=O)NC(=O)[C@H](Cc2ccccc2)NC(=O)[C@H](Cc2c[nH]c3ccccc23)NC(=O)[C@H](Cc2ccc(O)cc2)NC(=O)[C@H](Cc2ccccc2)NC1=O)[C@@H](C)O` [MP-492] (Ac-[Lys(N3)][βAla]FTF[R8]FYWFQ[Cba][S5]SAA-NH2; staple 6-13), the half-maximal effective concentration (EC50) is > 50.6 µM in data set [1] (LDH: Cytotoxicity assay: EC50), 2.53 µM in data set [2] and > 49.8 µM in the data set with Ca Ski cell line. In data set [3] (pH 7, PBS), the solubility kinetic came to 3 µM (≈ 6.3 µg/mL). For the same compound, in “in vitro”, the cell entry EC50 is 0.16 µM. Also, in the data set “physchem [4]”, the EPSA was determined as 211 A^2. In data set [5], this compound gave a logD of 4.21.
Take `CC(=O)N[C@@H](CCCCN=[N+]=[N-])C(=O)NCCC(=O)N[C@@H](CC(C)C)C(=O)N[C@H](C(=O)N[C@@H](Cc1ccccc1)C(=O)N[C@]1(C)CCCCCCC=CCCC[C@@](C)(C(=O)N[C@@H](CO)C(=O)N[C@@H](C)C(=O)N[C@@H](C)C(N)=O)NC(=O)[C@H](CC2CCC2)NC(=O)[C@H](CCC(N)=O)NC(=O)[C@H](C)NC(=O)[C@H](Cc2c[nH]c3ccccc23)NC(=O)[C@H](Cc2ccc(O)cc2)NC(=O)[C@H](CCCNC(=N)N)NC1=O)[C@@H](C)O` [MP-554] (Ac-[Lys(N3)][βAla]LTF[R8]RYWAQ[Cba][S5]SAA-NH2; staple 6-13): the EC50 was determined as 30.4 µM in data set [1] (LDH: Cytotoxicity assay EC50), 5.79 µM in data set [2] and 11.4 µM in the data set with Ca Ski cell line. Also, in “physchem [6]”, the EPSA was 215 A^2. Also, in data set [3] (pH 7, PBS), the Solubility entry was “Poorly Behaved”. Also, the cell entry EC50 in “in vitro” was determined as 0.586 µM. Also, in data set [5], the logD came out at 3.28.
Turning to `CC(=O)N[C@@H](CCCCN=[N+]=[N-])C(=O)NCCC(=O)N[C@@H](CC(C)C)C(=O)N[C@H](C(=O)N[C@@H](Cc1ccccc1)C(=O)N[C@]1(C)CCCCCCC=CCCC[C@@](C)(C(=O)N[C@@H](CO)C(=O)N[C@@H](C)C(=O)N[C@@H](C)C(N)=O)NC(=O)[C@H](CC2CCC2)NC(=O)[C@H](CCC(N)=O)NC(=O)[C@H](CCCNC(=N)N)NC(=O)[C@H](Cc2c[nH]c3ccccc23)NC(=O)[C@H](Cc2ccc(O)cc2)NC(=O)[C@H](CCC(=O)O)NC1=O)[C@@H](C)O` [MP-555] (Ac-[Lys(N3)][βAla]LTF[R8]EYWRQ[Cba][S5]SAA-NH2; staple 6-13), the EC50 in data set [1] (LDH: Cytotoxicity assay EC50) is > 50 µM; in data set [2], 6.25 µM; with Ca Ski cell line, > 49.8 µM. This compound also displayed an EPSA in “physchem [6]” of 220 A^2. In addition, in data set [3] (pH 7, PBS), the solubility kinetic amounted to 2 µM (≈ 4.11 µg/mL). For the same compound, the cell entry EC50 in “in vitro” was 0.249 µM. In addition, in data set [5], the logD is 2.92.
On to `CC(=O)N[C@@H](CCCCN=[N+]=[N-])C(=O)NCCC(=O)N[C@@H](CC(C)C)C(=O)N[C@H](C(=O)N[C@@H](Cc1ccccc1)C(=O)N[C@]1(C)CCCCCCC=CCCC[C@@](C)(C(=O)N[C@@H](CCCNC(=N)N)C(=O)N[C@@H](C)C(=O)N[C@@H](C)C(N)=O)NC(=O)[C@H](CC2CCC2)NC(=O)[C@H](CCC(N)=O)NC(=O)[C@H](C)NC(=O)[C@H](Cc2c[nH]c3ccccc23)NC(=O)[C@H](Cc2ccc(O)cc2)NC(=O)[C@H](CCC(=O)O)NC1=O)[C@@H](C)O` [MP-557] (Ac-[Lys(N3)][βAla]LTF[R8]EYWAQ[Cba][S5]RAA-NH2; staple 6-13), for which the results for the EC50 (in data set [1] (LDH: Cytotoxicity assay EC50); in data set [2]; in the data set with Ca Ski cell line) were > 50 µM, 2.04 µM and > 49.8 µM, respectively. Moreover, the EPSA in “physchem [6]” is 219 A^2. In addition, in data set [3] (pH 7, PBS), the Solubility entry is recorded as “Poorly Behaved”. Moreover, the cell entry EC50 in the data set “in vitro” is 0.136 µM. In data set [5], the “Partition Coeff LogD” value was “Poorly Behaved”.
For `CC(=O)N[C@@H](CCCCN=[N+]=[N-])C(=O)NCCC(=O)N[C@@H](Cc1ccc(O)cc1)C(=O)N[C@H](C(=O)N[C@@H](Cc1ccccc1)C(=O)N[C@]1(C)CCCCCCC=CCCC[C@@](C)(C(=O)N[C@@H](CO)C(=O)N[C@@H](C)C(=O)N[C@@H](C)C(N)=O)NC(=O)[C@H](CC2CCC2)NC(=O)[C@H](CCC(N)=O)NC(=O)[C@H](Cc2ccc(O)cc2)NC(=O)[C@H](Cc2c[nH]c3ccccc23)NC(=O)[C@H](Cc2ccc(O)cc2)NC(=O)[C@H](Cc2ccc(O)cc2)NC1=O)[C@@H](C)O` [MP-694] (Ac-[Lys(N3)][βAla]YTF[R8]YYWYQ[Cba][S5]SAA-NH2; staple 6-13), the half-maximal effective concentration (EC50) in data set [1] (LDH: Cytotoxicity assay: EC50) is > 50.6 µM; in data set [2], 3.03 µM; with Ca Ski cell line, > 49.8 µM. In addition, the solubility kinetic in data set [3] (pH 7, PBS) is 9 µM (≈ 19.3 µg/mL). Besides, the cell entry EC50 in “in vitro” amounted to 0.453 µM. This compound also gave an EPSA in the data set “physchem [4]” of 227 A^2. Moreover, the logD in data set [5] stood at 3.22.
In the case of `CC(=O)N[C@@H](CCCCN=[N+]=[N-])C(=O)NCCC(=O)N[C@@H](CC(C)C)C(=O)N[C@H](C(=O)N[C@@H](Cc1ccccc1)C(=O)N[C@]1(C)CCCCCCC=CCCC[C@@](C)(C(=O)N[C@@H](C)C(=O)N[C@@H](C)C(=O)N[C@@H](C)C(N)=O)NC(=O)[C@H](CC2CCC2)NC(=O)[C@H](CCC(N)=O)NC(=O)[C@H](C)NC(=O)[C@H](Cc2c[nH]c3ccccc23)NC(=O)[C@H](Cc2ccc(O)cc2)NC(=O)[C@H](C)NC1=O)[C@@H](C)O` [MP-8965] (Ac-[Lys(N3)][βAla]LTF[R8]AYWAQ[Cba][S5]AAA-NH2; staple 6-13), the EC50 was > 50 µM in data set [1] (LDH: Cytotoxicity assay EC50), 0.855 µM in data set [2] and > 49.8 µM in the data set with Ca Ski cell line. In addition, the EPSA in the data set “physchem [6]” was found to be 205 A^2. For the same compound, the Solubility entry is “P.B” in data set [3] and “Poorly Behaved” in data set [3] (pH 7, PBS). Moreover, the cell entry EC50 in “in vitro” is 0.112 µM. Also, the “Partition Coeff LogD” value is “Poorly Behaved” in data set [5] and “P.B” in data set [5] (experimental).
Regarding `CC(=O)N[C@@H](CCCCN=[N+]=[N-])C(=O)N[C@@H](CCCCN)C(=O)N[C@@H](CCCCN)C(=O)NCCC(=O)N[C@@H](C)C(=O)N[C@@H](C)C(=O)N[C@@H](Cc1ccccc1)C(=O)N[C@]1(C)CCCCCCC=CCCC[C@@](C)(C(=O)N[C@@H](C)C(=O)N[C@@H](C)C(=O)N[C@@H](C)C(N)=O)NC(=O)[C@H](CC2CCC2)NC(=O)[C@H](C)NC(=O)[C@H](C)NC(=O)[C@H](Cc2c[nH]c3ccccc23)NC(=O)[C@H](Cc2ccc(O)cc2)NC(=O)[C@H](C)NC1=O` [MP-8967] (Ac-[Lys(N3)]KK[βAla]AAF[R8]AYWAA[Cba][S5]AAA-NH2; staple 8-15), the EC50 is 16.8 µM in data set [1] (LDH Cytotoxicity assay EC50), 16.8 µM in data set [1] (LDH: Cytotoxicity assay EC50), 12.1 µM in data set [2] and 13.5 µM in the data set on Ca Ski cell line. This compound also showed an EPSA in “physchem [6]” of 223 A^2. Also, the Solubility result in data set [3] is listed as “P.B”; in data set [3] (pH 7, PBS), “Poorly Behaved”. The cell entry EC50 in the data set “in vitro” came to 0.575 µM. In data set [5], this compound gave a logD of 2.75.
